Results reported in patent publication US20230174642A1, “AFFINITY-MATURATED ANTI-ASIC1a ANTIBODIES” (SHANGHAITECH UNIVERSITY, priority 2019, published 2023).

Assays:
ASIC1a = biological target: T1, ASIC1a (Homo sapiens, UniProt P78348); experiment: Patch clamp whole-cell recording of acid-induced hASIC1a currents; format: cell-based; conditions: 30 μM amiloride, positive control; pH 7.4 to pH 6.0; read-out: inhibition of the acid-induced ASIC1a currents
T1 construct: expressed in transfected cells
T1 sequence (P78348 1-528): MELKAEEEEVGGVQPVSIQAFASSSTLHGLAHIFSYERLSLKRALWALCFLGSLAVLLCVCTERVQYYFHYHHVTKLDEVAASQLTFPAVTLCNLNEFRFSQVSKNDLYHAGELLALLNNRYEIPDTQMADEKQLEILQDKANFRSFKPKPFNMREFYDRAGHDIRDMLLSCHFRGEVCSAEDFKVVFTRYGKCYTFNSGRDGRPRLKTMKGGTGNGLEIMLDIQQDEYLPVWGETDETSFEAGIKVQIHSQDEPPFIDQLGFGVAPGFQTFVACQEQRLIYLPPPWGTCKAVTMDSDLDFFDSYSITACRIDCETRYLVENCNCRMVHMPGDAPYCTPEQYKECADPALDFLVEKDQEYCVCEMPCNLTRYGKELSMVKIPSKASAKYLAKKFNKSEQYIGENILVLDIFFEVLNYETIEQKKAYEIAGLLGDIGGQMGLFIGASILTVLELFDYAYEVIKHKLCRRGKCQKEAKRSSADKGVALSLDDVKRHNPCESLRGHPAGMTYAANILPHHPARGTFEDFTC
Experimental: FIGS. 4A-4E show the effect of affinity-matured ASC06-IgG1 derivative antibodies on the hASIC1a currents. Shown are the representative current traces recorded from single CHO-K1 cells stably expressing hASIC1a in the absence or presence of 100 nM ASC06-IgG1 (FIG. 4A) or affinity-matured ASC06-IgG1 versions ASC06-01-IgG1 (FIG. 4B), ASC06-02-IgG1 (FIG. 4C), ASC06-03-IgG1 (FIG. 4D), or ASC06-04-IgG1 (FIG. 4E). Amiloride (30 μM) was used as a positive control. “Wash” represents the recovery of the current after the treatment of 100 nM indicated antibody followed by 15 min infusion of washing solution.
Whether the affinity-matured ASC06-IgG1 derivative antibodies have an effect on the acid-induced, hASIC1a-mediated electrical current in cells was tested. An hASIC1a overexpressing stable cell line was used as a model for these studies. Extracellular pH was decreased from pH 7.4 to pH 6.0 and the amplitudes of the hASIC1a-mediated inward currents were recorded in the whole-cell recording mode in the presence of the affinity-matured ASC06-IgG1 derivative antibodies (FIGS. 4A-4E). The ASIC1a inhibitor amiloride (30 μM) was used as a positive control for the inhibition of ASIC1a currents.

[1] = biological target: T2, hASIC1a on CHO-K1 cells stably expressing hASIC1a (human, UniProt P78348 1-528); experiment: cell-based or functional assay
T2 sequence (looked up): T1 sequence (P78348 1-528)

N=C(N)NC(=O)c1nc(Cl)c(N)nc1N [amiloride, reference compound]
inhibition at 30 µM (ASIC1a): > 50%

B1: ASC06-05-IgG1 (antibody, V domains shown)
VH: QVQLQQSGGGLVQPGGSLRLSCAASGFTFSSYAMSWVRQAPGKGLEWVSAISGSGGSTYYADSVKGRFTISRDNSKNTLYLQMNSLRAEDTAVYYCAKDSYFGRAKGSWGQGTLVTVSS
VL: QSALTQPASVSGSPGQSITISCTGTSSDVGAYNYVSWYQQQPGKAPKLMIYGVSNRPSGVSNRFSGSKSGNAASLTISGLQAEDEADYYCSSYTSSSTYVFGTGTKLTVLG
IC50 for the inhibition of ASIC1a currents, FMP assay [1]: 31 nM
